Laboratory results from ChEMBL document CHEMBL1201862, “PubChem BioAssay data set” (2004).
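In this assay, cells in 96-well plates receive the compound at five concentrations for 48 hours. Endpoints are linearly interpolated between the surrounding concentrations. GI50 = concentration required for 50% inhibition of growth.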 Calls of active or inactive are those of the source. Rule as the data show it: active = GI50 up to about 1.1 µM and inactive = higher.

Tests used:
Assay in all cases: NCI-60 cell line screen, 48 h
786-0 = tested on: 786-0
A498 = tested on: A498
A549 = tested on: A549
ACHN = tested on: ACHN
BT-549 = tested on: BT-549
CCRF-CEM = tested on: CCRF-CEM
COLO 205 = tested on: COLO 205
DU-145 = tested on: DU-145
EKVX = tested on: EKVX
HCC 2998 = tested on: HCC 2998
HCT-116 = tested on: HCT-116
HCT-15 = tested on: HCT-15
HL-60 = tested on: HL-60
HOP-62 = tested on: HOP-62
HOP-92 = tested on: HOP-92
HT-29 = tested on: HT-29
Hs-578T = tested on: Hs-578T
IGROV-1 = tested on: IGROV-1
K562 = tested on: K562
KM12 = tested on: KM12
M14 = tested on: M14
MDA-MB-231 = tested on: MDA-MB-231
MDA-MB-435 = tested on: MDA-MB-435
MDA-N = tested on: MDA-N
MOLT-4 = tested on: MOLT-4
Malme-3M = tested on: Malme-3M
NCI-H226 = tested on: NCI-H226
NCI-H23 = tested on: NCI-H23
NCI-H460 = tested on: NCI-H460
NCI-H522 = tested on: NCI-H522
NCI/ADR-RES = tested on: NCI/ADR-RES
OVCAR-3 = tested on: OVCAR-3
OVCAR-4 = tested on: OVCAR-4
OVCAR-5 = tested on: OVCAR-5
OVCAR-8 = tested on: OVCAR-8
PC-3 = tested on: PC-3
RPMI-8226 = tested on: RPMI-8226
RXF 393 = tested on: RXF 393
SF-268 = tested on: SF-268
SF-295 = tested on: SF-295
SF-539 = tested on: SF-539
SK-MEL-28 = tested on: SK-MEL-28
SK-MEL-2 = tested on: SK-MEL-2
SK-MEL-5 = tested on: SK-MEL-5
SK-OV-3 = tested on: SK-OV-3
SN12C = tested on: SN12C
SNB-19 = tested on: SNB-19
SW-620 = tested on: SW-620
T47D = tested on: T47D
TK-10 = tested on: TK-10
U-251 = tested on: U-251
UACC-257 = tested on: UACC-257
UACC-62 = tested on: UACC-62
UO-31 = tested on: UO-31
CAKI-1 = tested on: CAKI-1
LOX IMVI = tested on: LOX IMVI
MCF7 = tested on: MCF7
SR = tested on: SR
SNB-75 = tested on: SNB-75

For `CC(C)(Cl)C(Br)CCC(C)(Br)C(Br)CBr` (configuration not stated), the GI50 (786-0) was 17.4 µM (inactive), the GI50 (A498) was 19.3 µM (inactive) and the GI50 (A549) was 30.1 µM (inactive). For the same molecule, the GI50 (ACHN) was 17.4 µM (inactive), the GI50 (BT-549) was 22.3 µM (inactive) and the GI50 (CCRF-CEM) was 10.5 µM (inactive). For the same molecule, the GI50 (COLO 205) was 16.9 µM (inactive), the GI50 (DU-145) was 19.6 µM (inactive) and the GI50 (EKVX) was 25.4 µM (inactive). The GI50 (HCC 2998) was 13.1 µM (inactive), the GI50 (HCT-116) was 16 µM (inactive) and the GI50 (HCT-15) was 17.1 µM. For the same molecule, the GI50 (HL-60) was 17 µM (inactive), the GI50 (HOP-62) was 16.1 µM (inactive) and the GI50 (HOP-92) was 21.5 µM (inactive). The GI50 (HT-29) was 15.8 µM (inactive), the GI50 (Hs-578T) was 21.5 µM (inactive) and the GI50 (IGROV-1) was 19.6 µM (inactive). For the same molecule, the GI50 (K562) was 23 µM (inactive), the GI50 (KM12) was 17.8 µM (inactive) and the GI50 (M14) was 17.7 µM (inactive). The GI50 (MDA-MB-231) was 12.9 µM (inactive), the GI50 (MDA-MB-435) was 17.8 µM (inactive) and the GI50 (MDA-N) was 19.5 µM (inactive). For the same molecule, the GI50 (MOLT-4) was 19.6 µM (inactive), the GI50 (Malme-3M) was 17.4 µM (inactive) and the GI50 (NCI-H226) was 18.8 µM (inactive). The GI50 (NCI-H23) was 19.5 µM (inactive), the GI50 (NCI-H460) was 15.3 µM (inactive) and the GI50 (NCI-H522) was 13 µM (inactive). The GI50 (NCI/ADR-RES) was 17 µM (inactive), the GI50 (OVCAR-3) was 15.9 µM (inactive) and the GI50 (OVCAR-4) was 18.7 µM (inactive). For the same molecule, the GI50 (OVCAR-5) was 15.7 µM (inactive), the GI50 (OVCAR-8) was 16.2 µM (inactive) and the GI50 (PC-3) was 24.9 µM (inactive). The GI50 (RPMI-8226) was 19.2 µM (inactive), the GI50 (RXF 393) was 22.1 µM (inactive) and the GI50 (SF-268) was 16.9 µM (inactive). The GI50 (SF-295) was 17.7 µM (inactive), the GI50 (SF-539) was 15.6 µM (inactive) and the GI50 (SK-MEL-28) was 17.2 µM (inactive). The GI50 (SK-MEL-2) was 14.7 µM (inactive), the GI50 (SK-MEL-5) was 14.6 µM (inactive) and the GI50 (SK-OV-3) was 29.1 µM (inactive). For the same molecule, the GI50 (SN12C) was 20 µM (inactive), the GI50 (SNB-19) was 23.1 µM (inactive) and the GI50 (SW-620) was 16.3 µM (inactive). For the same molecule, the GI50 (T47D) was 18.7 µM (inactive), the GI50 (TK-10) was 27.5 µM (inactive) and the GI50 (U-251) was 16.5 µM (inactive). For the same molecule, the GI50 (UACC-257) was 18.7 µM (inactive), the GI50 (UACC-62) was 17.7 µM (inactive) and the GI50 (UO-31) was 19 µM (inactive).
For `C/C=C/[C@H]1O[C@@](OC)([C@@H](C)[C@H](O)[C@H](C)[C@H]2OC(=O)/C(OC)=C/C(C)=C/[C@@H](C)[C@@H](O)[C@@H](C)[C@@H](O)[C@H](C)C/C(C)=C/C=C/[C@@H]2OC)CC(OC2CC(O)C(OC(N)=O)C(C)O2)[C@@H]1C` (some centres not stated), the GI50 (786-0) was < 0.01 µM (active), the GI50 (A498) was 8.99 µM (inactive) and the GI50 (A549) was < 0.01 µM (active). The GI50 (ACHN) was < 0.01 µM (active), the GI50 (BT-549) was < 0.01 µM (active) and the GI50 (CAKI-1) was < 0.01 µM (active). For the same molecule, the GI50 (CCRF-CEM) was < 0.01 µM (active), the GI50 (COLO 205) was < 0.01 µM (active) and the GI50 (EKVX) was < 0.01 µM (active). The GI50 (HCC 2998) was < 0.01 µM (active), the GI50 (HCT-116) was < 0.01 µM (active) and the GI50 (HCT-15) was under 0.01 µM. For the same molecule, the GI50 (HL-60) was < 0.01 µM (active), the GI50 (HOP-62) was < 0.01 µM (active) and the GI50 (HOP-92) was 0.103 µM (active). The GI50 (HT-29) was < 0.01 µM (active), the GI50 (Hs-578T) was 2.08 µM (inactive) and the GI50 (IGROV-1) was < 0.01 µM (active). The GI50 (K562) was < 0.01 µM (active), the GI50 (KM12) was < 0.01 µM (active) and the GI50 (LOX IMVI) was < 0.01 µM (active). For the same molecule, the GI50 (M14) was < 0.01 µM (active), the GI50 (MCF7) was < 0.01 µM (active) and the GI50 (MDA-MB-231) was < 0.01 µM (active). For the same molecule, the GI50 (MDA-MB-435) was < 0.01 µM (active), the GI50 (MDA-N) was < 0.01 µM (active) and the GI50 (MOLT-4) was < 0.01 µM (active). For the same molecule, the GI50 (Malme-3M) was < 0.01 µM (active), the GI50 (NCI-H226) was < 0.01 µM (active) and the GI50 (NCI-H23) was 1.99 µM (inactive). For the same molecule, the GI50 (NCI-H460) was < 0.01 µM (active), the GI50 (NCI-H522) was < 0.01 µM (active) and the GI50 (NCI/ADR-RES) was 0.0953 µM (active). For the same molecule, the GI50 (OVCAR-3) was < 0.01 µM (active), the GI50 (OVCAR-5) was 1.82 µM (inactive) and the GI50 (OVCAR-8) was < 0.01 µM (active). For the same molecule, the GI50 (PC-3) was < 0.01 µM (active), the GI50 (RPMI-8226) was < 0.01 µM (active) and the GI50 (RXF 393) was 2.39 µM (inactive). For the same molecule, the GI50 (SF-268) was < 0.01 µM (active), the GI50 (SF-295) was < 0.01 µM (active) and the GI50 (SF-539) was < 0.01 µM (active). For the same molecule, the GI50 (SK-MEL-2) was < 0.01 µM (active), the GI50 (SK-MEL-5) was < 0.01 µM (active) and the GI50 (SK-OV-3) was 7.48 µM (inactive). The GI50 (SN12C) was 0.589 µM (active), the GI50 (SNB-19) was 2.9 µM (inactive) and the GI50 (SR) was < 0.01 µM (active). For the same molecule, the GI50 (SW-620) was < 0.01 µM (active), the GI50 (T47D) was < 0.01 µM (active) and the GI50 (TK-10) was 8.79 µM (inactive). For the same molecule, the GI50 (U-251) was < 0.01 µM (active), the GI50 (UACC-257) was < 0.01 µM (active) and the GI50 (UACC-62) was < 0.01 µM (active). The GI50 (UO-31) was < 0.01 µM (active).
`Cc1ccc(NC(=O)c2cc3ccccc3c(/N=N/c3cc(S(=O)(=O)O)ccc3O)c2O)c(C)c1` was tested, and the GI50 (786-0) was 16.2 µM (inactive), the GI50 (A498) was 42.3 µM (inactive) and the GI50 (A549) was 22.3 µM (inactive). The GI50 (ACHN) was 5.97 µM (inactive), the GI50 (BT-549) was 17.8 µM (inactive) and the GI50 (CAKI-1) was 32.5 µM (inactive). For the same molecule, the GI50 (CCRF-CEM) was 3.3 µM (inactive), the GI50 (COLO 205) was 36.8 µM (inactive) and the GI50 (DU-145) was 19.2 µM (inactive). The GI50 (EKVX) was 19.6 µM (inactive), the GI50 (HCT-116) was 29.9 µM (inactive) and the GI50 (HCT-15) was 9.33 µM. The GI50 (HOP-62) was 13.1 µM (inactive), the GI50 (HOP-92) was 21.2 µM (inactive) and the GI50 (HT-29) was 12.4 µM (inactive). The GI50 (Hs-578T) was 31.6 µM (inactive), the GI50 (IGROV-1) was 16.3 µM (inactive) and the GI50 (K562) was 23 µM (inactive). The GI50 (KM12) was 16.1 µM (inactive), the GI50 (LOX IMVI) was 32.4 µM (inactive) and the GI50 (M14) was 7.43 µM (inactive). The GI50 (MDA-MB-231) was 26.1 µM (inactive), the GI50 (MDA-MB-435) was 19.7 µM (inactive) and the GI50 (MDA-N) was 32.2 µM (inactive). For the same molecule, the GI50 (MOLT-4) was 17.1 µM (inactive), the GI50 (Malme-3M) was 16.4 µM (inactive) and the GI50 (NCI-H226) was 15.4 µM (inactive). For the same molecule, the GI50 (NCI-H23) was 16.6 µM (inactive), the GI50 (NCI-H522) was 25.4 µM (inactive) and the GI50 (NCI/ADR-RES) was 25.6 µM (inactive). The GI50 (OVCAR-3) was 3.26 µM (inactive), the GI50 (OVCAR-4) was 12.7 µM (inactive) and the GI50 (OVCAR-5) was 16.2 µM (inactive). For the same molecule, the GI50 (OVCAR-8) was 17.5 µM (inactive), the GI50 (PC-3) was 14.5 µM (inactive) and the GI50 (RPMI-8226) was 15 µM (inactive). The GI50 (RXF 393) was 17.5 µM (inactive), the GI50 (SF-268) was 18.6 µM (inactive) and the GI50 (SF-295) was 10 µM (inactive). The GI50 (SK-MEL-28) was 18.7 µM (inactive), the GI50 (SK-MEL-2) was 16 µM (inactive) and the GI50 (SK-MEL-5) was 23.7 µM (inactive). The GI50 (SK-OV-3) was 20 µM (inactive), the GI50 (SN12C) was 41.7 µM (inactive) and the GI50 (SNB-19) was 15.8 µM (inactive). The GI50 (SNB-75) was 23.3 µM (inactive), the GI50 (SW-620) was 10.9 µM (inactive) and the GI50 (T47D) was 24.7 µM (inactive). The GI50 (TK-10) was 25.1 µM (inactive), the GI50 (U-251) was 4.33 µM (inactive) and the GI50 (UACC-257) was 23.8 µM (inactive). For the same molecule, the GI50 (UACC-62) was 15.5 µM (inactive) and the GI50 (UO-31) was 4.44 µM (inactive).
